Data from patent US6348201B2, “External composition for skin comprising sphingoglycolipid” (Kibun Food Chemifa Co., Ltd., priority 1997, dated 2002).

The molecules below were run on hairless mice (Skh:hr-1) (assay: Test for evaluating moisturizing and skin roughness prevention effects: transcutaneous transpiration measured with a hydrograph). Settings: 10th day, average of five mice, relative to control (0.5% Triton X-150, 9 g/m^2/h) as 100; Triton X-150 pretreated, middle-wavelength UV 0.15 J/cm^2, samples applied once a day on rear back.
Format: in vivo
Method: Twenty male hairless mice of 9-week old (Skh:hr-1, Nihon SLC) were treated with 0.5% Triton X-150 (50 μl) in a circular area of 2.5 cm diameter on their rear backs. The once-a-day application was continued for 5 days. On the 6th day and thereafter, middle-wavelength UV light was irradiated at a dose of 0.15 J/cm^2 using a SE lamp (manufactured by Toshiba Medical Instruments Co., Ltd.), and Samples 1 to 5 (dissolved in 0.5% Triton X-150) listed below and control sample (0.5% Triton X-150) were applied. These procedures were followed once a day and continued up to the 10th day. Five hairless mice were subjected to each test for Samples or the control.
After the middle-wavelength UV irradiation and the sample application were completed on the 10th day, amount of transcutaneous transpiration was measured using a hydrograph (model AMU-3: manufactured by Fauchon Co., Ltd.) to determine an average value for the five mice. Results were shown in the table below, where the values are expressed in relative values assuming the control (9 g/m^2/h) as 100.

First: CCCCCCCCCCCCC/C=C\C(O)C(CO)NC(=O)O[C@@H]1O[C@H](CO)[C@H](O)[C@H](O)[C@H]1O (stereo partly drawn) [Sample 5 (comparison), Galactocerebroside]
Second: Ganglioside [Sample 4 (comparison)]
The Relative transcutaneous transpiration of the first is higher: 91 for the first, 89 for the second.

Work on “Glyceroglycolipid [Sample 3 (comparison)]” yielded a Relative transcutaneous transpiration of 123.
